Data as given in patent US20020137779A1, “Use of L-2-oxothiazolidine-4-carboxylic acid for the treatment of type 2 diabetes” (Advanced Biochemicals Inc., priority 2001, published 2002).

Key:
pancreatic islet cells = experiment: insulin secretion of pancreatic islets isolated from mice, radioimmunoassay; format: cell-based, C57BL mouse
Protocol: First step; After isolating pancreatic islets from a C57BL mouse according to Lacy and Kotianovsky(Diabetes, 16, 35-39, 1967), the islets were incubated for 60 min. at 37°C. with 250 […] of L-2-oxothiazolidine-4-carboxylic acid alone or together with 2.8-25 mM of glucose, and insulin from the supernatant was measured by radioimmunoassay,
The isolation of pancreatic islets from a C57BL mouse(weight; 20 g, Samtako, Daejeon, Korea) was performed according to the method of Lacy and Kotianovsky et al.(Diabetes, 16; 35-39, 1967). The pancreas of ether-anesthetized mouse was distended by infusion with Hank's balanced salt solution(HBSS, GIBCO, USA) containing 1 mg/ml of collagenase (Sigma, USA) via common bile duct and isolated. The isolated pancreas was digested for 20 min at 37 C while stirring homogeneously. After removing acinar cells by washing with HBSS, pancreatic islets of similar size were collected under dissecting microscope. 2.8-25 mM of glucose(Sigma, USA) alone or together with 250 ^μM-[…] of L-2-oxothiazolidine-4-carboxylic acid were administered to the isolated 10 pancreatic islets in 100 ^μl of Krebs Ringer bicarbonate(Sigma, USA) buffer solution containing 10 mM of Hepes, the islets were incubated for 60 min. at 37 °C., and insulin in the supernatant, from which the pancreatic β-islet cells was removed, was measured. […]

[1] = tested on: type 2 diabetes mice (C57BL/KsJ-db/db Jcl); experiment: serum insulin after a single oral dose and glucose loading (Example 2); format: in vivo, mouse; settings: for Conc. of insulin: glucose 1 g/kg i.p. after 5 hours, serum 30 minutes later
Protocol: Second step; Determining optimum L-2-oxothiazolidine-4-carboxylic acid concentration which is appropriate for enhancing insulin secretion and lowering blood glucose levels in a type 2 diabetes mouse, by administering 0-400 mg/kg of L-2-oxothiazolidine-4-carboxylic acid orally,
The present example is to show an appropriate concentration of L-2-oxothiazolidine-4-carboxylic acid for the purpose of improving the ability of insulin secretion and lowering blood glucose levels, by varying the concentrations of L-2-oxothiazolidine-4-carboxylic acid in a single oral dose to type 2 diabetes mice.
The present inventors ascertained the effect of various concentrations of L-2-oxothiazolidine-4-carboxylic acid on lowering blood glucose level and insulin secretion. in which experiments enough sterilized-feed and water was given to 6 week old C57BL mice(Samtako, purchased from Clea, Japan) in the light condition of 12L: 12D for a week, bred the mice in the incubator of A.B.J Co.(Building 1 Chonbuk National University Medical School, Chonju, Korea) for a week, and no feed but water was given to the mice for 13 hours before insulin and glucose levels were measured.
0.2 ml of PBS (pH 7.4) was orally given to the control group(5 mice) using feeding needle, and 1.5-400 mg/kg of L-2-oxothiazolidine-4-carboxylic acid, dissolved in 0.2 ml of PBS and its pH was adjusted to 7.2 with 3 N NaOH(Junsei, Japan), was orally administered to experimental group(5 mice). After 5 hours of the drug administration, glucose(Sigma, USA) was injected intraperitoneally at the concentration of 1 g/kg, and incubated the mice for 30 minutes. Immediately after the mice were anesthetized with ether, the thoraces of the mice was incised to take blood, serum was isolated, and the insulin concentration of the mice-serum was measured by radioimmunoassay using rat insulin assay kit(Amersham Pharmacia Bio Co., USA).

[2] = tested on: type 2 diabetes mice (C57BL/KsJ-db/db Jcl); experiment: serum insulin levels after glucose intake, single oral administration (Example 3); format: in vivo, mouse; settings: for concentration of insulin / increase of insulin concentration vs control group: 30 min after glucose intake
Protocol: Third step; Determining the abilities of lowering blood glucose level and increasing insulin secretion ability following glucose loading, by administering a single dose of 8-80 mg/kg of L-2-oxothiazolidine-4-carboxylic acid to a type 2 diabetes mouse, Fourth step; Examining the effect of long term administration of L-2-oxothiazolidine-4-carboxylic acid on lowering blood glucose levels,
Under the same breeding condition as in EXAMPLE 2, no feed but water was given to 7 week old type 2 diabetes mice (C57BL/KsJ-db/db Jel, Clea, Japan) for 13 hours. 0.2 ml of PBS was orally given to the control group(5 mice) using feeding needle, and 8-80 mg/kg of L-2-oxothiazolidine-4-carboxylic acid dissolved in 0.2 ml of PBS was orally administered to the experimental group(5 mice). After 5 hours of drug administration, 1 g/kg of glucose (Sigma, USA) was intraperitoneally injected and the mice were maintained for 30 to 120 minutes. The blood glucose levels of type 2 diabetes mice at various time points were measured by the glucose oxidase method using a glucose analyzer(One-touch Basic, Lifescan, USA), and serum insulin levels were determined using a radioimmunoassay, as described in EXAMPLE 2.

## O=C1NC(C(=O)O)CS1 [OTC, L-2-oxothiazolidine-4-carboxylic acid]
Pancreatic islet cells; 500 μM−2 mM OTC in the presence of 17.5 mM glucose, 60 min at 37°C
  insulin secretion of pancreatic islet cells: increased insulin secretion in a dose-dependent manner
Pancreatic islet cells; OTC 500 μM-2 mM
  glucose dependence of the stimulation of insulin secretion from pancreatic islets: the presence of glucose is required for the stimulation of insulin secretion
[1]; 3-20 mg/kg single oral dose, p<0.05
  insulin secretion ability compared to the control group: improvement of insulin secretion ability
[1]; 40-160 mg/kg single oral dose, p<0.001
  insulin secretion ability compared to the control group: more than 2 times
[1]; OTC 1.5 mg/kg single oral dose
  Conc. of insulin: 878 pmol/L
[1]; OTC 3 mg/kg single oral dose
  Conc. of insulin: 908 pmol/L
[1]; OTC 10 mg/kg single oral dose
  Conc. of insulin: 1103 pmol/L
[1]; OTC 20 mg/kg single oral dose
  Conc. of insulin: 1,205 pmol/l
[1]; OTC 40 mg/kg single oral dose
  Conc. of insulin: 1,535 pmol/l
[1]; OTC 80 mg/kg single oral dose
  Conc. of insulin: 1,750 pmol/l
[1]; OTC 160 mg/kg single oral dose
  Conc. of insulin: 1684 pmol/L
[1]; OTC 400 mg/kg single oral dose
  Conc. of insulin: 1350 pmol/L
[1]; over 400 mg/kg single oral dose, p<0.005
  insulin secretion ability compared to the control group: salient improvement of insulin secretion ability
[2]; 40 mg/kg single oral dose
  concentration of insulin: 1,650±103 pmol/1
  increase of insulin concentration vs control group: 26.5%
[2]; 80 mg/kg single oral dose
  concentration of insulin: 1,760±94 pmol/l
  increase of insulin concentration vs control group: 35.4%
[2]; 40-80 mg/kg single oral dose
  duration of the improvement of insulin secretion after the intake of glucose: about 120 min
